# From US11523612B2, “Pesticidal composition comprising oxime carbamate and use thereof” (priority 2017, dated 2022)
# What was measured:
# [1] = Solubility Test 1: oxamyl dissolved in solvent systems, crystallization or precipitation observed; format: physicochemical
# Experimental: Samples of each solution were kept at −6° C. and −18° C. for 7 days, after which the degree of crystallization or precipitation of oxamyl was observed.
# [2] = as above; format: physicochemical; remark: listed apart in the source
# [3] = 40 g oxamyl in Methanol:Water 50:50 g
# [4] = 40 g oxamyl in Methanol:Water 80:20 g
# [5] = 40 g oxamyl in Methanol:Water:Propylene Carbonate 30:20:50 g
# [6] = 40 g oxamyl in Methanol:Water:Propylene Carbonate 40:30:30 g
# [7] = 40 g oxamyl in Methanol:Water:Propylene Carbonate 40:40:20 g
# [8] = 40 g oxamyl in Methanol:Water:Propylene Carbonate 50:40:10 g
# [9] = 40 g oxamyl in Methanol:Water:Propylene Carbonate 60:20:20 g
# [10] = 40 g oxamyl in Methanol:Water:Propylene Carbonate 75:20:5 g
smiles,measurement,setting,value
"CNC(=O)O/N=C(\SC)C(=O)N(C)C [Oxamyl, methyl 2-(dimethylamino)-N-[[(methylamino)carbonyl]oxy]-2-oxoethanimidothioate]",Observations after 7 days at −6° C.,[1]; [3],Mild precipitation
same,Observations after 7 days at −18° C.,[1]; [3],Significant precipitation
same,Observations at room temperature,[1]; [3],Clear solution
same,Observations after 7 days at −6° C.,[1]; [4],Clear solution
same,Observations after 7 days at −18° C.,[1]; [4],Significant precipitation
same,Observations after 7 days at −6° C.,[1]; [5],Clear solution
same,Observations after 7 days at −18° C.,[1]; [5],Clear solution
same,Observations after 7 days at −6° C.,[1]; [6],Clear solution
same,Observations after 7 days at −18° C.,[1]; [6],Clear solution
same,Observations at room temperature,[1]; [6],Clear solution
same,Observations after 7 days at −6° C.,[1]; [7],Clear solution
same,Observations after 7 days at −18° C.,[1]; [7],Clear solution
same,Observations at room temperature,[1]; [7],Clear solution
same,Observations after 7 days at −6° C.,[1]; [8],Clear solution
same,Observations after 7 days at −18° C.,[1]; [8],Clear solution
same,Observations at room temperature,[1]; [8],Clear solution
same,Observations after 7 days at −6° C.,[1]; [9],Clear solution
same,Observations after 7 days at −18° C.,[1]; [9],Clear solution
same,Observations at room temperature,[1]; [9],Clear solution
same,Observations after 7 days at −6° C.,[1]; [10],Clear solution
same,Observations after 7 days at −18° C.,[1]; [10],Clear solution
same,solubility for oxamyl,"[1]; solvent system comprising methanol, water and propylene carbonate, temperatures down to −18° C.",significantly higher solubility
same,Observations at room temperature,[2]; [4],Clear solution
same,Observations at room temperature,[2]; [5],Clear solution
same,Observations at room temperature,[2]; [10],Clear solution
